Assay results taken from ChEMBL document CHEMBL6120978, “Anticancer activity of salinomycin quaternary phosphonium salts” (Eur J Med Chem, 2025).
Activity calls are given as the source filed them. The calls are words filed in the database; no cut-off is given here.

Key:
A549 [1] = test: Effect on mitochondrial mass in human A549 cells assessed as increase in MTGreen positive cells at IC50 incubated for 48 hrs by MitoTracker Green FM staining based flow cytometry analysis relative to control; type: functional
Lipid bilayer [2] = test: Induction of ionic transport in azolectin bilayer membrane assessed as irregular disturbance in membrane permeability in presence of HEPES buffer by electrophysiology technique
Lipid bilayer [3] = test: Induction of current generation in azolectin bilayer membrane in presence of HEPES buffer by electrophysiology technique
A549 [4] = test: Induction of cell cycle arrest in human A549 cells assessed as accumulation of cells at S phase at IC50 incubated for 24 hrs by propidium iodide staining based flow cytometry analysis (reference value: 21.6 %); type: functional
[5] = Selectivity index, ratio of IC50 for cytotoxicity against chinese hamster V79 cells to IC50 for cytotoxicity against human A549 cells; type: toxicity, cell-based; conditions: V79 cells versus A549 cells, read-out: Ratio IC50
Staphylococcus aureus [6] = test: Antimicrobial activity against Staphylococcus aureus NCTC 4163 incubated for 18 hrs by twofold microdilution method; type: functional
A549 [7] = test: Induction of cell cycle arrest in human A549 cells assessed as accumulation of cells at G2 phase at IC50 incubated for 24 hrs by propidium iodide staining based flow cytometry analysis (reference value: 20.8 %); type: functional
Lipid bilayer [8] = test: Induction of ionic transport in azolectin bilayer membrane assessed as specific channel-like structure formation in presence of HEPES buffer by electrophysiology technique
A549 [9] = test: Effect on mitochondrial function in human A549 cells assessed as fold increase in mean fluorescence intensity at IC50 incubated for 48 hrs by MitoTracker Red CMXRos staining based flow cytometry analysis relative to control; type: functional
[10] = Cytotoxicity against human HaCaT cells incubated for 72 hrs by MTT assay; type: toxicity, cell-based
A549 [11] = test: Induction of apoptosis in human A549 cells assessed as late apoptotic cells at IC50 incubated for 72 hrs by Annexin V-FITC staining based flow cytometry analysis (reference value: 1.86 %); type: functional
Mitochondrial membrane [12] = test: Induction of mitochondrial membrane potential loss in human A549 cells assessed as green fluorescence at IC50 incubated for 48 hrs MitoTracker Green FM staining based flow cytometry analysis (reference value: 8.93 %); type: cell membranes
A549 [13] = test: Induction of mitochondrial respiration in human A549 cells assessed as increase in oxygen consumption rate upto 10 uM by Oxygraph-2K system; type: functional, cell-based
[14] = Selectivity index, ratio of IC50 for cytotoxicity against human HaCaT cells to IC50 for cytotoxicity against human A549 cells; type: toxicity, cell-based; conditions: HaCaT cells versus A549 cells, read-out: Ratio IC50
Staphylococcus aureus [15] = test: Antimicrobial activity against Staphylococcus aureus ATCC 25923 incubated for 18 hrs by twofold microdilution method; type: functional
Staphylococcus aureus [16] = test: Antimicrobial activity against Staphylococcus aureus ATCC 29213 incubated for 18 hrs by twofold microdilution method; type: functional
MDA-MB-231 = test: Effect on mitochondrial function in human MDA-MB-231 cells assessed as increase in MTRed CMXRos positive cells at IC50 incubated for 48 hrs by MitoTracker Red CMXRos staining based flow cytometry analysis relative to control; type: functional
[17] = Selectivity index, ratio of IC50 for cytotoxicity against chinese hamster V79 cells to IC50 for cytotoxicity against human MDA-MB-231 cells; type: toxicity, cell-based; conditions: V79 cells versus MDA-MB-231 cells, read-out: Ratio IC50
A549 [18] = test: Effect on mitochondrial mass in human A549 cells assessed as fold increase in mean fluorescence intensity at IC50 incubated for 48 hrs by MitoTracker Green FM staining based flow cytometry analysis relative to control; type: functional
Lipid bilayer [19] = test: Induction of ionic transport in azolectin bilayer membrane assessed as membrane rupture in presence of HEPES buffer by electrophysiology technique
Mitochondrial membrane [20] = test: Induction of mitochondrial membrane potential loss in human MDA-MB-231 cells assessed as green fluorescence at IC50 incubated for 48 hrs MitoTracker Green FM staining based flow cytometry analysis (reference value: 8.86 %); type: cell membranes
A549 [21] = test: Induction of cell cycle arrest in human A549 cells assessed as accumulation of cells at G0/G1 phase at IC50 incubated for 24 hrs by propidium iodide staining based flow cytometry analysis (reference value: 54.3 %); type: functional
A549 [22] = test: Induction of mitochondrial respiration in human A549 cells assessed as increase in oxygen consumption rate by Oxygraph-2K system; type: functional, cell-based

SMILES	Activity (A549 [1]) [%]	Activity (A549 [4])	selectivity ratio [5]	MIC (Staphylococcus aureus [6]) [µg/mL]	Activity (A549 [7])	fold change (FC) (A549 [9])	IC50 at 72 h [10] [nM]	Activity (A549 [11]) [%]	Activity (Mitochondrial membrane [12]) [%]	selectivity ratio [14]	MIC (Staphylococcus aureus [15]) [µg/mL]	MIC (Staphylococcus aureus [16]) [µg/mL]	Activity (MDA-MB-231) [%]	selectivity ratio [17]	fold change (FC) (A549 [18])	Activity (Mitochondrial membrane [20]) [%]	Activity (A549 [21])	other results
CC[C@@H](C(=O)[C@@H](C)[C@@H](O)[C@H](C)[C@@H]1O[C@@H]([C@@H](CC)C(=O)OCCCC[P+](c2ccccc2)(c2ccccc2)c2ccccc2)CC[C@@H]1C)[C@H]1O[C@]2(C=C[C@@H](O)[C@]3(CC[C@@](C)([C@H]4CC[C@](O)(CC)[C@H](C)O4)O3)O2)[C@H](C)C[C@@H]1C.[Br-]	70	13.2%	0.2	2	12%	3	1230	3.9	41.7	1.8	2	1	50	0.2	6	60.8	68.5%	Activity (Lipid bilayer [2]): inactive; Activity (Lipid bilayer [3]): Dose-dependent-effect; Activity (Lipid bilayer [8]): inactive; Activity (A549 [13]): Active; Activity (Lipid bilayer [19]): inactive
CCCC[P+](CCCC)(CCCC)CCCCOC(=O)[C@H](CC)[C@H]1CC[C@H](C)[C@H]([C@@H](C)[C@H](O)[C@H](C)C(=O)[C@H](CC)[C@H]2O[C@]3(C=C[C@@H](O)[C@]4(CC[C@@](C)([C@H]5CC[C@](O)(CC)[C@H](C)O5)O4)O3)[C@H](C)C[C@@H]2C)O1.[Br-]	70	Active	0.7	2	Active	3	700	14.59	32.5	0.8	2	2	90	0.7	6	70.7	Active	Activity (A549 [22]): Active; Small Increase In Oxygen Consumption Rate Was Observed
